The values that follow come from PMC7868389, “Identification and Functional Characterization of Two Putative Pheromone Receptors in the Potato Tuber Moth, Phthorimaea operculella” (Frontiers in Physiology, 2021).

Usually EC50 stands for the concentration needed to bring the measured effect to its halfway point. A lower EC50 goes with an effect from little substance.

Common to all, as to format: cell-based
In assay [1] the target is T1, PopeOR1 (Phthorimaea operculella, UniProt A0A8K1YT58).
T1 construct: full-length ORF, co-expressed with PopeOrco in Xenopus oocytes; with PopeOrco
T1 sequence (A0A8K1YT58 1-435): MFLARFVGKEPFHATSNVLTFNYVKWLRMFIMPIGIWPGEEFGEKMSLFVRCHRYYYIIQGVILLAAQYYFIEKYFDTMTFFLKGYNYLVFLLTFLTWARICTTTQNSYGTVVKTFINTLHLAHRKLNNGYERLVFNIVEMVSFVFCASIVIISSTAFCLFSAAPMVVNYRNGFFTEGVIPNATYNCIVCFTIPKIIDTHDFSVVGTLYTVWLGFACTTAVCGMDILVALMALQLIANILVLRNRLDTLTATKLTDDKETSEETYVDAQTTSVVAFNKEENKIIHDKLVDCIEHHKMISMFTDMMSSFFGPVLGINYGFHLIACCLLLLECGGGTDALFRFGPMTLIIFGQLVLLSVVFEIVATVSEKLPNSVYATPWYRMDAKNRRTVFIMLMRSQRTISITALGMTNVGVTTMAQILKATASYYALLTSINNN
T1 sequence (A0A8K1YT59 1-473 partner): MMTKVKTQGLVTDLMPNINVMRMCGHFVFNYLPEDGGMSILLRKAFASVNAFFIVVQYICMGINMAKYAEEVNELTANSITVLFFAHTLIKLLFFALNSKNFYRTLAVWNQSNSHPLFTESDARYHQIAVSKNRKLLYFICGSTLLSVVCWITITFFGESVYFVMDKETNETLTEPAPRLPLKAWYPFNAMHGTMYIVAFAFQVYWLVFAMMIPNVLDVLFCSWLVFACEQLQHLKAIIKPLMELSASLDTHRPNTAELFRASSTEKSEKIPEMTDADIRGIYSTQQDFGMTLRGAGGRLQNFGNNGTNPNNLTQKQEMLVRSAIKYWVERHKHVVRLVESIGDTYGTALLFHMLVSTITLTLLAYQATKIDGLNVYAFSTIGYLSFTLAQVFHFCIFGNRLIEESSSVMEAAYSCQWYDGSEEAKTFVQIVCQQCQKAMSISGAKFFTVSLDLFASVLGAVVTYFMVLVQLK
The assay can be described thus: two-electrode voltage clamp in Xenopus oocytes. (Two-electrode voltage clamp is typically applied to oocytes expressing channels or transporters.)

The target in assay [2] is T2, PopeOR3 (Phthorimaea operculella, UniProt A0A8K1YT60).
T2 construct: full-length ORF, co-expressed with PopeOrco in Xenopus oocytes; with PopeOrco
T2 sequence (A0A8K1YT60 1-404): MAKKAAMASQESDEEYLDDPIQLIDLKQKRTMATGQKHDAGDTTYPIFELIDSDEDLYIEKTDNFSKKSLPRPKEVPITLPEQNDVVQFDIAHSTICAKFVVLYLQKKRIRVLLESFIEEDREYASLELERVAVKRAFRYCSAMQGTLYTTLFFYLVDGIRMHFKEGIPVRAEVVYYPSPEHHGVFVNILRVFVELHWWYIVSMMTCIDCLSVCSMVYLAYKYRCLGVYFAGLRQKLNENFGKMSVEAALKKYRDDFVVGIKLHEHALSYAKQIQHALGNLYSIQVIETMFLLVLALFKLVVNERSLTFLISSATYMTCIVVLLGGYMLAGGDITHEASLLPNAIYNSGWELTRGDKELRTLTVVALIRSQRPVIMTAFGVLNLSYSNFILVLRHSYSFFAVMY
T2 sequence (A0A8K1YT59 1-473 partner): T1 sequence (A0A8K1YT59 1-473 partner)
The assay can be described thus: two-electrode voltage clamp in Xenopus oocytes, weak current at […].

Assay [3] concerns the target T2, PopeOR3. The assay can be described thus: two-electrode voltage clamp in Xenopus oocytes.

In assay [1], `CCCCC/C=C\C/C=C/CCCOC(C)=O` [(E, Z)-4,7–13: OAc, trans-4, cis-7-tridecadienyl acetate] gave an EC50 of 73 µM. Moreover, the “two-electrode voltage clamp in Xenopus oocytes, weak current at 10^-4 M” value in assay [2] came out at 29.41 ± 6.87 nA.
On to `CC/C=C\C/C=C\C/C=C/CCCOC(C)=O` [(E, Z, Z)-4,7,10–13: OAc, tran-4, cis-7, cis-10-tridecatrienyl acetate], for which the EC50 in assay [1] turned out to be 39 µM; in assay [3], 89 µM.
